Assay results reported in patent US11008325B2, “Inhibitors of cancer invasion, attachment, and/or metastasis” (VIRGINIA COMMONWEALTH UNIVERSITY, priority 2016, dated 2021).

Legend:
B16 cells = assay: B16 experimental lung metastasis; format: in vivo, C57BL/6 mice; conditions: repeated treatment I.P., 30 and 50 mg/kg, 6 injections
Experimental: FIG. 57. PDZ1in (113B7) treatment results in marked reduction of B16 experimental lung metastases. C57BU6 mice were inoculated I.V. with B16 cells ([…]) to generate experimental lung metastases. One day after I.V. injection, mice received 30 and 50 mg/kg b.w. PDZ1i I.P. 3× a week for the first two weeks (total 6 injections). After 21 days, mice were sacrificed and lungs were collected, fixed with formalin and examined for nodules. Representative lungs with tumor metastases are shown.
Preliminary studies were performed to determine if administering PDZ1ln (113B7) would affect experimental metastasis. B16, a highly aggressive metastatic mouse melanoma, was intravenously injected resulting in lung nodules within 3 weeks. […] This experiment confirms that treatment with PDZ1in targeting MDA-9/Syntenin can directly prevent formation of lung metastases in vivo.

[1] = tested on: HuVEC cells / chorioallantoic membrane; assay: in vitro tube formation and CAM assays with tumor-derived conditioned media; format: cell-based; conditions: data not shown
Experimental: In this study, the potential impact of PDZ1i on tumor-derived angiogenesis in a prostate cancer context was explored. The experimental strategy is outlined in FIG. 18A. […] This observation was also validated in different PC cells by qPCR. Additionally, since VEGF-A is a potent angiogenic factor and a downstream target of STAT3, the expression pattern of VEGF-A at both mRNA and protein levels was also evaluated in different PC cells, including mda-9 stably expressing RWPE-1 cells (FIG. 18C).
Tube formation and CAM assays were performed as described previously^27. Briefly, tumor-derived conditioned media were collected after 24 h of treatment (either DMSO or PDZ1i) and concentrated. Equal amounts of protein (50 μg) containing conditioned media were mixed with basal media and incubated with HuVEC cells on Matrigel layers. Photographs were taken after 6 h. In CAM assays, DMSO- or PDZ1 i-treated tumor cell-derived conditioned media were implanted on the CAM of 8 day-old fertilized eggs. Photographs were taken on day 12, 4 days after applying conditioned media.

[2] = tested on: PDZ domain from X11/mint scaffold protein; assay: NMR [15N,1H] HSQC counter screen; format: binding; conditions: 20 μM protein, 100 μM 113B7
Experimental: FIGS. 4A-4E. FIG. 4A. Chemical structures of the two initial fragment hits (top) and the structure of the resulting molecule 113B7 (PDZ1i). FIG. 4B. Superposition of 2D [^15N, ^1H]-HSQC spectra of 50 μM MDA-9 PDZ12 tandem domain in the absence and presence of 350 μM 113B7. FIG. 4C. Binding curve and representative spectra for the titration of 113B7 against MDA-9 PDZ12 tandem domain. Top: Zoom of box region in FIG. 4B after titrating 113B7 into Mda9 PDZ, tandem domain. The cross peak corresponding to the backbone amide of residue A147 experiences a gradual shift upon the addition of 113B7. Bottom: Titration curve of 113B7 for residue A147. The dissociation constant for the binding of 113B7 to MDA-9 was calculated to be 21.37±8.62 μM. FIG. 4D. Superposition of 2D [^15N, ^1H]-HSQC spectra of 50 μM PDZ domain from X11/mint scaffold protein ([…]; 33% identity with PDZ1) are shown in absence and in presence of […] 113B7. […] FIG. 4E. Docked structure of 113B7 in complex with MDA-9 PDZ tandem domain (PDB: 1W9E). The pose was obtained with GOLD. Two PDZ domains of MDA-9 are labeled.
FIG. 52. Left panel, Docked structure of compound 113B7 on the surface of MDA-9/Syntenin. The docked structure is supported by NMR chemical shift mapping data. […]

IGF-1R and STAT3 = assay: western blot after hIGFBP-2 stimulation; format: cell-based; conditions: dose- and time-dependent
Experimental: FIGS. 17A-17H. Effect of PDZ1i on invasion, MDA-9/IGF-R1 interaction and IGF-R1, STAT3 and SRC phosphorylation. FIG. 17A) Different cancer cells (25,000 cells/well) from various anatomic origins were pre-treated with either DMSO (vehicle) or PDZ1i (dose as indicated) and invasion ability was assayed using modified Boyden Chamber according to the manufacturer's instructions. Photomicrographs were taken at 10× magnification and quantification of the results of three independent experiments is provided in the graphs. The data presents mean±S.D. B) The designated cells were treated with DMSO or PDZ1i and invasion properties were determined using a modified Boyden Chamber assay (BD bioscience). RWPE-1 mda-9: mda-9 transiently overexpressing cell line. […] FIG. 17E) Cells were growth starved for 24 h and treated with either DMSO or PDZ1i (dose indicated in μM) for 6 h. Cells were treated with human recombinant IGFBP-2 (hIGFBP-2, 10 ng/ml) for 2 h, lysates were prepared and western blot analysis was conducted with specific antibodies. FIG. 17F) Cells were serum-starved for 24 h and treated with either DMSO or PDZ1i (20 μM) for 6 h. […] Cells were treated with human recombinant […] (hIGFBP-2, 1 ng/ml) for 2 h, cell lysates were prepared and analyzed by western blotting. […]

Structure (SMILES): Cc1cc(NC(=O)c2nc3[nH]c4c(c(=O)n3n2)CCC4)c(C)cc1NC(=O)CCc1nnc(-c2ccccc2)o1 [113B7, N-(2,5-dimethyl-4-(3-(5-phenyl-1,3,4-oxadiazol-2-yl)propanamido)phenyl)-8-oxo-5,6,7,8-tetrahydro-4H-cyclopenta[d][1,2,4]triazolo[1,5-a]pyrimidine-2-carboxamide]
- number of lung nodules (B16 cells): significantly reduced the number of lung nodules
- angiogenic activity of treated tumor cell-derived conditioned media [1]: anti-angiogenic properties
- binding to X11/mint PDZ domain [2]: No appreciable binding is detected
- IGF-1R and STAT3 activity (IGF-1R and STAT3): down regulates
